Data as given in paper PMC9236248, “Ucl fimbriae regulation and glycan receptor specificity contribute to gut colonisation by extra-intestinal pathogenic Escherichia coli” (PLoS Pathogens, 2022).
“And” between values parts separate entries of the source, which are not always exact repeats. Identical values can stand only once.

Experiments:
UcaD^LD = UcaD^LD (Proteus mirabilis, UniProt B4EV65); experiment: Soaking of pre-formed UcaD^LD crystals with monosaccharides (X-ray crystallography); assay type: binding, P. mirabilis PM54; conditions: 0.1-0.2 M monosaccharide, 48 hours soak
Description: Crystals were produced by the hanging drop method. Structural analyses were carried out using DALI [22], and PyMOL (http://www.pymol.org). Figures were generated using PyMOL. The UclD^LD structure was refined to final Rwork/Rfree values of 24.8%/30.6%; the UcaD^LD structure was refined to final Rwork/Rfree values of 16.9%/19.2%, respectively (Table A in S1 Text). For UcaD^LD:monosaccharide complexes, coordinates and structure factors have been deposited in the PDB with IDs 7MZQ (Fuc complex), 7MZR (Glc complex), and 7MZS (Gal complex).
157 flash-cooling in liquid nitrogen. X-ray diffraction data were collected from a single crystal at the
158 Australian Synchrotron MX2 beamline, using a wavelength of 0.9537 Å. Data collection was
159 performed using Blu-Ice software, indexed and integrated using MOSFLM and scaled with
160 AIMLESS within the CCP4 suite. The structure was solved by molecular replacement using
161 PHASER [23] and UclDLD as the template. The model was refined using Phenix and structure
The structure was refined to final Rwork/Rfree values
163 of 16.9 %/19.2 %, respectively (Table A in S1 Text). The final UcaDLD model contains residues 21-
165 disordered or flexible conformation in the crystals. Coordinates and structure factors have been
166 deposited in the PDB with ID 7MZO.
167 UcaDLD:monosaccharide complexes: Pre-formed UcaDLD and UclDLD crystals were soaked with
168 0.1-0.2 M of the monosaccharides Fuc, Glc, Gal, GlcNAc, GalNAc or Neu5Ac for 48 hours in the
169 crystallisation solution (0.1 M sodium citrate buffer pH 4.5-5.5, 2-3 M NaCl). The crystals were
170 cryoprotected in Paratone-N and flash-cooled at 100 K. X-ray diffraction data were collected from
171 single crystals on the MX2 beamline at the Australian Synchrotron, using a wavelength of 0.9537 Å.
172 The data-sets was processed using either MOSFLM (Gal complex), or XDS (Fuc and Glc complexes)
173 [27] and scaled using AIMLESS in the CCP4 suite. The structures were solved by molecular
174 replacement using PHASER [23] and ligand-free UcaDLD as the template. The models were refined
175 using Phenix, and structure validations were performed using MolProbity. Coordinates and
176 structure factors have been deposited in the PDB with IDs 7MZQ (Fuc complex), 7MZR (Glc
177 complex), and 7MZS (Gal complex).

UclD^LD [1] = molecular target: T1, UclD^LD (Escherichia coli, UniProt Q8GA71); experiment: SPR analysis of glycans on immobilized UclD lectin domain; design: species or system E. coli strain F11; conditions: single cycle kinetics, read-out: KD, binding affinity to UclD^LD determined by SPR
T1 sequence (Q8GA71 21-221): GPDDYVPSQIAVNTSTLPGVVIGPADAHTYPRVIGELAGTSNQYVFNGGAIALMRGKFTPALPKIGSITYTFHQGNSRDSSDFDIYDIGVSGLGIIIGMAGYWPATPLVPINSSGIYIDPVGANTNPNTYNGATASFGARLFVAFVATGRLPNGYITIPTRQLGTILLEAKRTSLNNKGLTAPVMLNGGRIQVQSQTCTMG
Description: 126 described with minor modifications. Briefly, UclD and UcaD were immobilized onto flow cells
127 of a CM5 sensor chip using amine coupling at 20 µg/mL in 10 mM sodium acetate pH 4.0 and at a
128 flow rate of 5 µL/min for 10 minutes. Glycans were chosen based on positive glycan array results for
129 each of the proteins with each glycan run across a dilution range starting at a maximum concentration
130 of 100 µM and minimum concentrations tested being 1.6 nM using single cycle kinetics. Results were
131 analysed using the Biacore T200 evaluation software.
132 Crystallization and crystal structure determination.
133 UclDLD: UclDLD crystals were produced using the hanging drop method, with drops containing 1 µL
134 of protein (10 mg/mL) and 1 µL of well solution (20-25% w/v PEG 3350, 0.1 M Bis-Tris propane
135 pH 6.5, 0.2 M sodium iodide). The crystals appeared within 1-5 days. The crystals were cryoprotected
136 in glycerol (80% well solution and 20% (v/v) glycerol) before flash-cooling in liquid nitrogen. X-ray
137 diffraction data were collected from a single crystal at the Australian Synchrotron MX1 beamline,
138 using a wavelength of 0.9537 Å. Data collection was performed using Blu -Ice software, indexed
139 and integrated using MOSFLM and scaled with AIMLESS within the CCP4 suite. Molecular […]
142 we determined the UclDLD structure by SAD phasing using the CRANK2 [19] pipeline of the CCP4 […]

UclD = conditions: galactose at 1 mM alone
OxyR-6xHis = molecular target: T2, OxyR-6xHis (UniProt P0ACQ4); experiment: EMSA
T2 sequence: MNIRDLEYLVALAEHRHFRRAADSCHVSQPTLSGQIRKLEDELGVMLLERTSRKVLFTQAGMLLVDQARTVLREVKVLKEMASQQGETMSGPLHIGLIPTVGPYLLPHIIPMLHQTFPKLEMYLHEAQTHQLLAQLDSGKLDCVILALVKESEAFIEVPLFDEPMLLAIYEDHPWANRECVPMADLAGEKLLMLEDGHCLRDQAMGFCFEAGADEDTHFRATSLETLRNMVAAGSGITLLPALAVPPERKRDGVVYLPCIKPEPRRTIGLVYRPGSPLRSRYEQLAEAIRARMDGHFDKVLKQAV

UclD^LD [2] = molecular target: T1, UclD^LD; experiment: Glycan array analysis (358 glycan structures), UclD; conditions: yes/no binding

Sequence of UcaD^LD (B4EV65 entry or part of it): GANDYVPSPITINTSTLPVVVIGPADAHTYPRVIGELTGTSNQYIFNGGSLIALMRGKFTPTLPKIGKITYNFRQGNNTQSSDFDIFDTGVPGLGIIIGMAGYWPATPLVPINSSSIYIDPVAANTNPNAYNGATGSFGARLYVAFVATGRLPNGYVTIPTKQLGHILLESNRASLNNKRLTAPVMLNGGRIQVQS

Row | Molecule | Monosaccharide electron density / binding in soaked UcaD^LD crystals (UcaD^LD) | further results
1 | C[C@H](O)[C@@H](O)[C@@H](O)[C@H](O)C=O [Fuc, fucose] | Clear monosaccharide electron density was observed | 
2 | OC[C@H]1OC(O)[C@H](O)[C@@H](O)[C@@H]1O (some centres unmarked) [Glc, glucose] | Clear monosaccharide electron density was observed | 
3 | CC(=O)N[C@@H]1[C@@H](O)[C@H](O)[C@@H](CO)O[C@H]1O [GlcNAc, N-acetylglucosamine] | not | 
4 | CC(=O)N[C@H]1[C@H]([C@H](O)[C@H](O)CO)OC(O)(C(=O)O)C[C@@H]1O (some centres unmarked) [Neu5Ac, N-acetylneuraminic acid] | not | 
5 | CC(=O)N[C@H]1[C@H]([C@H](O)[C@H](O)CO)O[C@@](O[C@H]2[C@@H](O)[C@@H](CO)O[C@@H](O[C@@H]([C@H](O[C@@H]3O[C@@H](C)[C@@H](O)[C@@H](O)[C@@H]3O)[C@H](C=O)NC(C)=O)[C@H](O)CO)[C@@H]2O)(C(=O)O)C[C@@H]1O [SialylLewis X, Neu5Acα2-3Galβ1-4(Fucα1–3)GlcNAc] |  | Kd (UclD^LD [1]): 2520 nM
6 | O=C[C@H](O)[C@@H](O)[C@@H](O)[C@H](O)CO [galactose] | Clear monosaccharide electron density was observed | Response 15 seconds after injection-B (UclD): 6.3 RU and ~ 6.3 RU
7 | CO[C@@H]1O[C@H](CO)[C@H](O)[C@H](O)[C@H]1O [β-methyl-galactose] | did not observe binding | 
8 | AATAGGTCGCTCATTTCAGGGTAAAGCATATCTTTTGTCATTACCAACACAATAAATATGGTTTTTGATCGTTTTTCCCGATCGTTTTAGCAATCATGATATGTGCAATCTATCATACGCTGGTTATCGATCGGTAAAAACATTTTGAAAATGATTGTTTTGTTGGGGATGATTGCTGAACAAATGATCAATACTGGAATTAAACAGGAATTCATTTTATGAAAATAAAAGTTATAGCATTGGCTACATTTGTTTCTGCTG (double strand) [Cy3-Pucl-78T] |  | binding (OxyR-6xHis): binds
9 | asialo-GM1 |  | Binding to UclD^LD on glycan array (UclD^LD [2]): did not identify interactions
10 | lactosyl ceramide |  | Binding to UclD^LD on glycan array (UclD^LD [2]): did not identify interactions
